This note sets out measurements from patent US6413935B1, “Induction of immune response against desired determinants” (priority 1993, dated 2002).

Where two headings read alike, the source gives them in different places. Non-standard residues stand in square brackets, D forms with d. Residues, ends and D or L forms follow the SMILES beside them. Cha = N[C@@H](CC1CCCCC1)C(=O)O

For test [1], the system named is DR7. The note with it: read-out: PADRE Class II Binding Affinities DR7.
In test [2] the test system is DR5. The note with it: read-out: PADRE Class II Binding Affinities DR5.
The test system of test [3] is DQ3.1. Conditions: read-out: PADRE Class II Binding Affinities; Table VIII A.

`CC(C)[C@H](NC(=O)[C@@H](NC(=O)[C@H](C)NC(=O)[C@H](C)NC(=O)[C@H](C)NC(=O)[C@H](C)NC(=O)[C@H](CC1CCCCC1)NC(=O)[C@H](C)NC(=O)[C@@H](C)N)[C@@H](C)O)C(=O)N[C@@H](CCCCN)C(=O)N[C@@H](C)C(=O)N[C@@H](C)C(=O)N[C@H](C)C(N)=O` [Peptide 906.32]: the IC50 turned out to be 0.0581 µM in test [1], 0.0042 µM in test [2] and 0.026 µM in test [3].

For the compound `C[C@H](NC(=O)[C@H](C)NC(=O)[C@H](C)NC(=O)[C@H](CC1CCCCC1)NC(=O)[C@H](C)NC(=O)[C@@H](C)N)C(=O)N[C@@H](C)C(=O)N[C@H](C(=O)N[C@@H](Cc1ccccc1)C(=O)N[C@@H](CCCCN)C(=O)N[C@@H](C)C(=O)N[C@@H](C)C(=O)N[C@H](C)C(N)=O)[C@@H](C)O` [Peptide 906.33], the figures for the IC50 in test [1] (Table VIII A), in test [2] (Table VIII A) and in test [3] were 0.0431 µM, 0.0024 µM and 0.0134 µM, respectively.

Turning to `CC[C@H](C)[C@H](NC(=O)[C@@H](NC(=O)[C@H](C)NC(=O)[C@H](C)NC(=O)[C@H](C)NC(=O)[C@H](C)NC(=O)[C@H](CC1CCCCC1)NC(=O)[C@H](C)NC(=O)[C@@H](C)N)[C@@H](C)O)C(=O)N[C@@H](CCCCN)C(=O)N[C@@H](C)C(=O)N[C@@H](C)C(=O)N[C@H](C)C(N)=O` [Peptide 906.34], the IC50 in test [1] (Table VIII A) was 0.0556 µM; in test [2] (Table VIII A), 0.0031 µM; in test [3], 0.0305 µM.

`CC(C)C[C@H](NC(=O)[C@@H](NC(=O)[C@H](C)NC(=O)[C@H](C)NC(=O)[C@H](C)NC(=O)[C@H](C)NC(=O)[C@H](CC1CCCCC1)NC(=O)[C@H](C)NC(=O)[C@@H](C)N)[C@@H](C)O)C(=O)N[C@@H](CCCNC(=N)N)C(=O)N[C@@H](C)C(=O)N[C@@H](C)C(=O)N[C@H](C)C(N)=O` [Peptide 906.39] (H-[dA]A[Cha]AAAATLRAA[dA]-NH2; N-terminus and C-terminus assumed): the results for the IC50 in test [1], in test [2] and in test [3] were 0.0862 µM, 0.0043 µM and 0.0288 µM, respectively.

For the compound `CC(C)C[C@H](NC(=O)[C@@H](NC(=O)[C@H](C)NC(=O)[C@H](C)NC(=O)[C@H](C)NC(=O)[C@H](C)NC(=O)[C@H](CC1CCCCC1)NC(=O)[C@H](C)NC(=O)[C@@H](C)N)[C@@H](C)O)C(=O)N[C@@H](CCCCN)C(=O)N[C@@H](CCCCN)C(=O)N[C@@H](C)C(=O)N[C@H](C)C(N)=O` [Peptide 906.40] (H-[dA]A[Cha]AAAATLKKA[dA]-NH2; N-terminus and C-terminus assumed), the IC50 in test [1] (Table VIII A) came to 0.556 µM; in test [2] (Table VIII A) it was 0.0167 µM; in test [3], 0.0366 µM.

For `CC(C)C[C@H](NC(=O)[C@@H](NC(=O)[C@H](C)NC(=O)[C@H](C)NC(=O)[C@H](C)NC(=O)[C@H](C)NC(=O)[C@H](CC1CCCCC1)NC(=O)[C@H](C)NC(=O)[C@@H](C)N)[C@@H](C)O)C(=O)N[C@@H](CCCCN)C(=O)N[C@H](C(=O)N[C@@H](C)C(=O)N[C@H](C)C(N)=O)C(C)C` [Peptide 906.43] (H-[dA]A[Cha]AAAATLKVA[dA]-NH2; N-terminus and C-terminus assumed), the results for the IC50 in test [1] (Table VIII A), in test [2] (Table VIII A) and in test [3] were 0.049 µM, 0.0095 µM and 0.0247 µM, respectively.

With `CC[C@H](C)[C@H](NC(=O)[C@H](CCCCN)NC(=O)[C@H](CC(C)C)NC(=O)[C@@H](NC(=O)[C@H](C)NC(=O)[C@H](C)NC(=O)[C@H](C)NC(=O)[C@H](C)NC(=O)[C@H](CC1CCCCC1)NC(=O)[C@H](C)NC(=O)[C@@H](C)N)[C@@H](C)O)C(=O)N[C@@H](C)C(=O)N[C@H](C)C(N)=O` [Peptide 906.45] (H-[dA]A[Cha]AAAATLKIA[dA]-NH2; N-terminus and C-terminus assumed), the IC50 in test [1] (Table VIII A) is 0.025 µM; in test [2] (Table VIII A) it was 0.0282 µM; in test [3] it was 0.0562 µM.
